The results in this text go back to paper PMC9820345, “Metal Complexes of a 5-Nitro-8-Hydroxyquinoline-Proline Hybrid with Enhanced Water Solubility Targeting Multidrug Resistant Cancer Cells” (International Journal of Molecular Sciences, 2022).

The nature of data set [1]: Aqueous solubility at physiological pH (S7.4). The data set is classed as physicochemical. As to conditions: water, pH 7.4, aqueous buffer.
The nature of data set [2]: Formation constants of Fe(II) complexes by UV-vis spectrophotometric titrations. The data set is classed as physicochemical. The note with it: I = 0.1 M KCl, 25.0 °C. As for the experimental part:
UV-vis titrations were performed to determine the formation (overall stability) constants (β) for the complexes of HQNO2-L-Pro formed with Fe(III) and Fe(II) ions (Figures S10 and S11). In the latter case, titrations were performed in a laboratory glove box. The calculations were complicated by the overlapping feature of the ligand bands and the charge transfer bands of the complexes. Based on the absorption spectra Figures S10a and S11a), formation of mono, bis, and tris complexes were found in both chemical systems; obtained constants are collected in Table 2. […] Based on the concentration distribution diagrams (see Figure S10b for Fe(III) and Figure S11b for Fe(II)), it can be concluded that the tris complexes are the dominant species at pH 7.4 in the case of Fe(III), while with Fe(II) both tris and bis-ligand species are formed under the conditions of the titrations.
An Agilent Cary 8454 diode array spectrophotometer (Santa Clara, CA, USA) was used to obtain UV-vis spectra in the wavelength range 200–1000 nm, while spectra were recorded for the Fe(II)-containing samples using an Avantes (Avantes B.V., Apeldoorn, The Nederlands) AvaSpec-ULS2048CL-EVO spectrometer with an AvaLight-DHc light source and FDP-7UVIR200-2-VAR transmission dip probe. The titrations for the Fe(II)-containing samples were performed in a laboratory glove box (GP(Campus), Jacomex) (O2 content ≤ 1 ppm). The path length (ℓ) was 1 cm in most cases (the actual ℓ is always indicated in the legends of the figures). The concentrations of the ligands and complexes were between 40 and 200 µM, and 0.2 M KNO3 for the organometallic complexes or 0.1 M KCl for the Fe(II/III), Cu(II), and Zn(II) complexes were used to adjust the constant ionic strength. For HSA containing samples, complex concentrations were 50 µM, and 0.5, and 2 equiv. biomolecules were added for kinetic studies, respectively. For HSA model containing samples, complex concentrations were 50 µM, and the model concentrations were 0–150 µM and 0–500 µM, respectively, and the pH was 7.4 (PBS’). Spectra were always background and baseline corrected. The computer program HypSpec was used to obtain stability constants. Hydrolysis constants of the Fe(III), Fe(II), RuCym, and RhCp* species were included in the speciation models (see Table S4 with the data taken from References).

The conditions of data set [3]: at 1 μM concentration; pH 7.4. As for the experimental part:
Thus, a ligand displacement study was performed spectrophotometrically using 2,2’-bipyridine as the competitor (Figure S21) to determine the stability constant for the RhCp* complex at pH 7.4.
SUPPLEMENTARY INFORMATION
Figure S 20. UV-vis spectr a recorded for the (a) RhCp* − HQNO2-L-Pro (1:1) and (b) RuCym −
HQNO2-L-Pro (1:1) systems at different times at pH 1. Absorbance values plotted against the time
measured in the (c) RhCp* − HQNO2-L-Pro (1:1) at 435 nm, and (d) RuCym − HQNO2-L-Pro (1:1) at
410 nm at pH 1 and 4 (indicated in the figure). { cligand = 50 μM; cRhCp* or RuCym = 50 μM; l = 1 cm; t =
Figure S 21. (a) UV -vis spectra of the R hCp*-HQNO2-L-Pro complex at various equivalents of 2,2’ -
bipyridine at pH 7.4 after 24 h waiting time and (b) the measured absorbance values at 4 35 nm plotted
against the 2,2’-bipyridine:complex ratio.
complex taken from Ref. [74]. {ccomplex = 50 μM; PBS’ buffer; l = 1 cm; t = 25.0 °C}
c (2,2'-bipyridine) / c (complex) […]

As a reminder, the solubility is the concentration that dissolves in the medium under given conditions. Read a low solubility as a poorly soluble substance. In data set [1], `O=C(O)[C@@H]1CCCN1Cc1cc([N+](=O)[O-])c2cccnc2c1O` [HQNO2-L-Pro, (2S)-1-((8-hydroxy-5-nitroquinolin-7-yl)methyl)pyrrolidin-1-ium-2-carboxylate] returned a solubility of over 10 mM. In data set [2], the “logβ [M(HL)2]” value was 32.74 ± 0.03, the “logβ [M(HL)3]” value is 47.60 ± 0.06, the “logβ [M(HL)]” value came to 16.52 ± 0.03 and the “logβ [M(L)]” value is listed as 8.39 ± 0.03.

On to `CC1=C(C)[C](C)([Rh]([Cl])[O]c2c(C[NH+]3CCC[C@H]3C(=O)O)cc([N+](=O)[O-])c3cccnc23)C(C)=C1C.[Cl-]` [RhCp*-HQNO2-L-Pro, [RhCp*(HQNO2-L-Pro)Cl]Cl], for which, in data set [3], the “dissociation of the complex expected” value was under 1%.
